Test results as given in patent US10703755B2, “Substituted purine derivative” (SUMITOMO DAINIPPON PHARMA CO., LTD., priority 2016, dated 2020).

Target: human TLR7 (Homo sapiens (Human), UniProt Q9NYK1)
Assay: Test for evaluating the inhibition of the activation of human TLR7 (SEAP reporter, TLR7/NF-κB/SEAPorter HEK293 cell)
Assay type: cell-based
Details: R-848 200 nmol/L; for IC50: SEAP reporter; for inhibitory effect against TLR7 in the test for evaluating inhibition of the activation of TLR7: SEAP activity, result in words
Procedure: As human TLR7 expressing cell line, HEK293 cell line was bought from IMGENEX Corporation (TLR7/NF-ηB/SEAPorter™ HEK293 cell), which is human embryonic kidney cell line and stably expresses full-length human TLR7 gene and secreted alkaline phosphatase (SEAP) reporter gene under the transcriptional control of an NE-ηB response element. The TLR7/NF-ηB/SEAPorter™ HEK293 cell was cultivated with DMEM containing 10% fetal bovine serum (FBS) and 10 μg/mL blasticidin S at 37° C. in the presence of 5% CO2. The TLR7/NF-ηB/SEAPorter™ HEK293 cell was seeded into 96-well microtiter plate at 5×10^4 cell/90 μL/well, and the place was cultivated at 37° C. in a CO2 incubator overnight.
Each compound prepared in the Examples was evaluated by Test 1.

human TLR7, sequence (Q9NYK1 27-1049): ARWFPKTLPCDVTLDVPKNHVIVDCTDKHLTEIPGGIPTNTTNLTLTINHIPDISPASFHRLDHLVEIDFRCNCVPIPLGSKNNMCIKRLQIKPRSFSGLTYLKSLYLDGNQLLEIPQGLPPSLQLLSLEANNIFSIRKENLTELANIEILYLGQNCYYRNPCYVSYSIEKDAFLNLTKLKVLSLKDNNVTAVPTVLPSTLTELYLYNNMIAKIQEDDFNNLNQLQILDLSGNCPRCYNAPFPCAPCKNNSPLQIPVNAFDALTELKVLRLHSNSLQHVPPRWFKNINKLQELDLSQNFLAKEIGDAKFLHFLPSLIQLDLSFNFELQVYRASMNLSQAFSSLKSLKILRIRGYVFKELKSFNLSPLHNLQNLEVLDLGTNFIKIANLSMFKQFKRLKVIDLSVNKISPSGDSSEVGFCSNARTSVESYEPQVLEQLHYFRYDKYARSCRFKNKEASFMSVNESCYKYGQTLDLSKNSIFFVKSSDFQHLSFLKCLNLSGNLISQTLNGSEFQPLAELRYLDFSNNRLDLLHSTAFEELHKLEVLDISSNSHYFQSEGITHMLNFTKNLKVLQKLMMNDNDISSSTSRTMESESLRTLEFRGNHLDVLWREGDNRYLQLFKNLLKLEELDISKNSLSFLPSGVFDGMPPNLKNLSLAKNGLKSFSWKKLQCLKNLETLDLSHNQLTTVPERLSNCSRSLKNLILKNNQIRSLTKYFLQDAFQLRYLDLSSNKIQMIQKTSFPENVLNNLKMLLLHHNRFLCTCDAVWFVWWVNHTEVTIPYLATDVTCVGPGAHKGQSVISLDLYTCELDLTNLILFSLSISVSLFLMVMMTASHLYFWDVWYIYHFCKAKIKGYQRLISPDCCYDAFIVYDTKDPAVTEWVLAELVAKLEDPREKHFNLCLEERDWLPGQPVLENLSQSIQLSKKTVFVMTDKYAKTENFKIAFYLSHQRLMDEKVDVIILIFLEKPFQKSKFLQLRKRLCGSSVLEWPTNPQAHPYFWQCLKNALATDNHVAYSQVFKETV

Row | IC50 [nM] | Structure (SMILES) | inhibitory effect against TLR7 in the test for evaluating inhibition of the activation of TLR7
1 | 5500 | CCCCOc1nc(N)c2nc(-c3cccnc3)n(Cc3ccccc3)c2n1 [Example 2] | –
2 | 9200 | CCCCOc1nc(N)c2nc(-c3cccnc3)n(Cc3cccnc3)c2n1 [Example 3] | –
3 | 7800 | CCCCOc1nc(N)c2nc(-c3ccncc3)n(Cc3ccccc3)c2n1 [Example 4] | –
4 | 1400 | CCCCOc1nc(N)c2nc(-c3cncnc3)n(Cc3ccccc3)c2n1 [Example 5] | –
5 | 9600 | CCCCOc1nc(N)c2nc(-c3cnc(N)nc3)n(Cc3ccccc3)c2n1 [Example 6] | –
6 | 7800 | CCCCOc1nc(N)c2nc(-c3ccoc3)n(Cc3ccccc3)c2n1 [Example 7] | –
7 | 9300 | CCCCOc1nc(N)c2nc(-c3cnn(C)c3)n(Cc3ccccc3)c2n1 [Example 8] | –
8 | 12800 | CCCCOc1nc(N)c2nc(-c3ccccc3)n(Cc3cccnc3)c2n1 [Example 9] | –
9 | 800 | CCCCOc1nc(N)c2nc(-c3cncc(OC)c3)n(Cc3ccccc3)c2n1 [Example 10] | –
10 | 10900 | CCCCOc1nc(N)c2nc(-c3ccccc3)n(Cc3ccccc3)c2n1 [Example 11] | –
11 | 9200 | CCCCOc1nc(N)c2nc(-c3cccc(OC)c3)n(Cc3ccccc3)c2n1 [Example 12] | –
12 | 9300 | CCCCOc1nc(N)c2nc(-c3cccc(Cl)c3)n(Cc3ccccc3)c2n1 [Example 13] | –
13 | 1100 | CCCCOc1nc(N)c2nc(-c3cncc(Cl)c3)n(Cc3ccccc3)c2n1 [Example 17] | –
14 | 2700 | CCCCOc1nc(N)c2nc(-c3cncc(C)c3)n(Cc3ccccc3)c2n1 [Example 18] | –
15 | 1400 | CCCCOc1nc(N)c2nc(-c3cncc(COC)c3)n(Cc3ccccc3)c2n1 [Example 19] | –
16 | 22500 | CCCCOc1nc(N)c2nc(-c3cncc(CO)c3)n(Cc3ccccc3)c2n1 [Example 20] | –
17 | 700 | CCOc1nc(N)c2nc(-c3cncc(F)c3)n(Cc3ccccc3)c2n1 [Example 21] | –
18 | 2000 | CCOc1nc(N)c2nc(-c3cncc(F)c3)n(Cc3cccnc3)c2n1 [Example 22] | –
19 | 13700 | COCCOc1nc(N)c2nc(-c3cncc(OC)c3)n(Cc3ccccc3)c2n1 [Example 24] | –
20 | 3500 | COCCOc1nc(N)c2nc(-c3cncc(F)c3)n(Cc3ccccc3)c2n1 [Example 25] | –
21 | 18700 | CCCCNc1nc(N)c2nc(-c3cncc(OC)c3)n(Cc3ccccc3)c2n1 [Example 26] | –
22 | 1400 | CCCCCc1nc(N)c2nc(-c3cncc(OC)c3)n(Cc3ccccc3)c2n1 [Example 27] | –

Row | IC50 [nM] | Structure (SMILES) | inhibitory effect against TLR7 in the test for evaluating inhibition of the activation of TLR7
23 | 1000 | CCCCOc1nc(N)c2nc(-c3cncc(COC)c3)n(Cc3ccccc3)c2n1 [Example 29] | –
24 | 2800 | CCOc1nc(N)c2nc(-c3cncc(C(F)F)c3)n(Cc3ccccc3)c2n1 [Example 30] | –
25 | 7700 | COCCOc1nc(N)c2nc(-c3cncc(C#N)c3)n(Cc3ccc(CN(C)C)cc3)c2n1 [Example 31] | –
26 | 8600 | COCCOc1nc(N)c2nc(-c3cnc4ccccc4c3)n(Cc3ccc(CN(C)C)cc3)c2n1 [Example 32] | –
27 | 820 | CCOc1nc(N)c2nc(-c3cncc(C)c3)n(Cc3ccc(CN(C)C)cc3)c2n1 [Example 33] | –
28 | 1700 | CCOc1nc(N)c2nc(-c3cncc(COC)c3)n(Cc3ccc(CN(C)C)cc3)c2n1 [Example 34] | –
29 | 18100 | CCCCOc1nc(N)c2nc(-c3ccccn3)n(Cc3ccccc3)c2n1 [Example 35] | –
30 | 2900 | CCOc1nc(N)c2nc(-c3cncc(OC)c3)n(Cc3ccc(CN(C)C)cc3)c2n1 [Example 36] | –
31 | 2700 | CCOc1nc(N)c2nc(-c3cncc(F)c3)n(Cc3cnn(C)c3)c2n1 [Example 37] | –
32 | 520 | CCOc1nc(N)c2nc(-c3cncc(F)c3)n(Cc3ccc(O[C@@H]4CCN(C)C4)nc3)c2n1 [Example 38] | –
33 | 820 | CCOc1nc(N)c2nc(-c3cncc(F)c3)n(Cc3ccc(O[C@H]4CCN(C)C4)nc3)c2n1 [Example 39] | –
34 | 550 | CCOc1nc(N)c2nc(-c3cncc(F)c3)n(Cc3ccc(OCCCN(C)C)nc3)c2n1 [Example 42] | –
35 | 2000 | CCOc1nc(N)c2nc(-c3cncc(F)c3)n(Cc3cc(OC)ccc3F)c2n1 [Example 43] | –
36 | 750 | CCOc1nc(N)c2nc(-c3cncc(F)c3)n(Cc3ccccc3F)c2n1 [Example 44] | –
37 | 950 | CCOc1nc(N)c2nc(-c3cncc(F)c3)n(Cc3ccc(-c4cncc(F)c4)cc3)c2n1 [Example 45] | –
38 | 30 | CCOc1nc(N)c2nc(-c3cncc(F)c3)n(Cc3ccc(OCCN4CCCC4)cc3)c2n1 [Example 47, 2-Ethoxy-8-(5-fluoropyridin-3-yl)-9-{4-[2-(pyrrolidin-1-yl)ethoxy]benzyl}-9H-purine-6-amine] | potent inhibitory effect against TLR7
39 | 59 | CCOc1nc(N)c2nc(-c3cncc(F)c3)n(Cc3cccc(OCCN4CCCC4)c3)c2n1 [Example 51] | potent inhibitory effect against TLR7
40 | 660 | CCOc1nc(N)c2nc(-c3cncc(F)c3)n(Cc3ccc(OCCN(C)C)cn3)c2n1 [Example 56] | –
41 | 230 | CCOc1nc(N)c2nc(-c3cncc(F)c3)n(Cc3ccc(OC4CCN(C)CC4)nc3)c2n1 [Example 60] | –
42 | 680 | CCOc1nc(N)c2nc(-c3cncc(F)c3)n(Cc3ccc(N(C)CCN(C)C)nc3)c2n1 [Example 64, N-(5-{[6-Amino-2-ethoxy-8-(5-fluoropyridin-3-yl)-9H-purin-9-yl]methyl}pyridin-2-yl)-N,N′,N′-trimethylethane-1,2-diamine] | –
43 | 550 | CCOc1nc(N)c2nc(-c3cncc(F)c3)n(Cc3ccc(N4CCN(C)CC4)nc3)c2n1 [Example 65] | –
44 | 180 | CCOc1nc(N)c2nc(-c3cncc(F)c3)n(Cc3ccc(N4CCN(C)CC4)cc3)c2n1 [Example 68, 2-Ethoxy-8-(5-fluoropyridin-3-yl)-9-[4-(4-methylpiperazin-1-yl)benzyl]-9H-purine-6-amine] | –

Row | Structure (SMILES) | IC50 [nM] | inhibitory effect against TLR7 in the test for evaluating inhibition of the activation of TLR7
45 | COc1nc(C)c2nc(-c3cncc(F)c3)n(Cc3ccc(C4CN5CCC4CC5)cc3F)c2n1 (single isomer, unassigned) [Example 392, 9-[4-(1-azabicyclo[2.2.2]oct-3-yl)-2-fluorobenzyl]-8-(5-fluoropyridin-3-yl)-2-methoxy-6-methyl-9H-purine] | 13 | –
46 | COc1nc(C)c2nc(-c3cncc(F)c3)n(Cc3ccc(C4CN5CCC4CC5)cc3F)c2n1 (single isomer, unassigned) [Example 393, 9-[4-(1-azabicyclo[2.2.2]oct-3-yl)-2-fluorobenzyl]-8-(5-fluoropyridin-3-yl)-2-methoxy-6-methyl-9H-purine] | 1 | –
47 | COc1nc(C)c2nc(-c3cncc(C#N)c3)n(Cc3ccc(C4CN5CCC4CC5)cc3F)c2n1 (single isomer, unassigned) [Example 402, 5-{9-[4-(1-azabicyclo[2.2.2]oct-3-yl)-2-fluorobenzyl]-2-methoxy-6-methyl-9H-purin-8-yl}pyridine-3-carbonitrile] | 132 | –
48 | COc1nc(C)c2nc(-c3cncc(C#N)c3)n(Cc3ccc(C4CN5CCC4CC5)cc3F)c2n1 (single isomer, unassigned) [Example 403, 5-{9-[4-(1-azabicyclo[2.2.2]oct-3-yl)-2-fluorobenzyl]-2-methoxy-6-methyl-9H-purin-8-yl}pyridine-3-carbonitrile] | 21 | potent inhibitory effect against TLR7
49 | CCCCOc1nc(N)c2nc(-c3cncc(F)c3)n(Cc3ccccc3)c2n1 [Example 1, 9-Benzyl-2-butoxy-8-(5-fluoropyridin-3-yl)-9H-purine-6-amine] | 2300 | –
50 | CCOc1nc(N)c2nc(-c3cncc(F)c3)n(Cc3ccc(O[C@@H]4CN5CCC4CC5)nc3)c2n1 [Example 40] | 120 | –
51 | CCOc1nc(N)c2nc(-c3cncc(F)c3)n(Cc3ccc(O[C@H]4CN5CCC4CC5)nc3)c2n1 [Example 41] | 140 | –
52 | CCOc1nc(N)c2nc(-c3cncc(F)c3)n(Cc3ccc(C4CN5CCC4CC5)cc3)c2n1 (stereo not drawn) [Example 46] | 25 | potent inhibitory effect against TLR7
53 | CCOc1nc(N)c2nc(-c3cncc(F)c3)n(Cc3ccc(O[C@@H]4CN5CCC4CC5)cc3)c2n1 [Example 66, 9-{4-[(3S)-1-Azabicyclo[2.2.2]oct-3-yloxy]benzyl}-2-ethoxy-8-(5-fluoropyridin-3-yl)-9H-purine-6-amine] | 21 | potent inhibitory effect against TLR7
54 | CCOc1nc(N)c2nc(-c3cncc(F)c3)n(Cc3ccc(O[C@H]4CN5CCC4CC5)cc3)c2n1 [Example 67] | 51 | potent inhibitory effect against TLR7
55 | COc1nc(C)c2nc(-c3cncc(F)c3)n(Cc3ccc(O[C@@H]4CN5CCC4CC5)nc3)c2n1 [Example 69, 9-({6-[(3S)-1-azabicyclo[2.2.2]oct-3-yloxy]pyridin-3-yl}methyl)-8-(5-fluoropyridin-3-yl)-2-methoxy-6-methyl-9H-purine] | 130 | potent inhibitory effect against TLR7
56 | COc1nc(C)c2nc(-c3cncc(F)c3)n(Cc3ccc(O[C@H]4CN5CCC4CC5)nc3)c2n1 [Example 70] | 110 | potent inhibitory effect against TLR7
57 | CCOc1nc(C)c2nc(-c3cncc(F)c3)n(Cc3ccc(O[C@@H]4CN5CCC4CC5)nc3)c2n1 [Example 71, 9-({6-[(3S)-1-azabicyclo[2.2.2]oct-3-yloxy]pyridin-3-yl}methyl)-2-ethoxy-8-(5-fluoropyridin-3-yl)-6-methyl-9H-purine] | 58 | potent inhibitory effect against TLR7
